Laboratory results: patent US11628198B2, “Methods for prevention and treatment of acute renal injury” (Cornell University, priority 2008, dated 2023)
Marks after values point to notes of the source that are not given here. Non-standard residues stand in square brackets, D forms with d. No end group written: not given here.

Assays:
CIN in patients = details: 443 patients randomly assigned; cited from earlier work
renal mitochondria = experiment: I/R model: respiration of isolated renal mitochondria; type: in vivo, rat; details: after 45 min ischemia, pretreatment
Description: Results. The effects of the aromatic-cationic peptides of the invention on a model of ARI caused by ischemia-reperfusion were investigated. Renal mitochondria were isolated in accordance with the procedures described above and oxygen consumption was measured.
State 3 respiration was initiated with the addition of ADP.

[1] = test system: ARI caused by ischemia-reperfusion (I/R); experiment: I/R model: renal morphologic examination (H&E, PAS); type: in vivo, rat; details: 45 min ischemia and 24 h reperfusion
Description: (§1) Sprague Dawley rats (250˜300 g) were assigned to four groups: (1) sham surgery group without I/R; (2) I/R+saline vehicle treatment; (3) I/R+SS-20 treatment; (4) I/R+SS-31 treatment. Each experimental group consisted of 8 rats. SS-20 and SS-31 (3 mg/kg, dissolved in saline) were administered to rats 30 min before ischemia and immediately before onset of reperfusion. The control rats were given saline alone on the same schedule.
(§2) Rats were anesthetized with a mixture of ketamine (90 mg/kg, i.p.) and xylazine (4 mg/kg, i.p.). The left renal vascular pedicle was occluded temporarily using a micro-clamp for 30 or 45 min. At the end of the ischemic period, reperfusion was established by removing of the clamp. At that time, the contralateral right kidney was removed. After 24 h reperfusion, animals were sacrificed and blood samples were obtained by cardiac puncture. Renal function was determined by blood urea nitrogen (BUN) and serum creatinine (BioAssay Systems DIUR-500 and DICT-500).
Renal Morphologic Examination: Kidneys were fixed in 10% neutral-buffered formalin and embedded in paraffin wax. Three micron sections were stained with hematoxylin-eosin (H&E) and periodic acid-Schiff (PAS) and analyzed by light microscopy. Lesions were scored using the following criteria: [1] mitosis and necrosis of individual cells; [2] necrosis of all cells in adjacent proximal convoluted tubules with survival of surrounding tubules; [3] necrosis confined to the distal third of the proximal convoluted tubule with a band of necrosis extending across the inner cortex; and [4] necrosis affecting all three segments of the proximal convoluted tubule.

[2] = test system: ARI caused by ischemia-reperfusion (I/R); experiment: I/R model of ARI: BUN and serum creatinine; type: in vivo, rat; details: 45 min ischemia and 24 h reperfusion; 3 mg/kg 30 min before ischemia and before reperfusion
Description: as §1, §2
BUN and serum creatinine were assayed using kits from BioAssay Systems (DIUR-500 and DICT-500). […] The # indicates p<0.05 from the IR=saline group.

[3] = test system: ARI caused by ischemia-reperfusion (I/R); experiment: I/R model: TUNEL assay for apoptosis; type: in vivo, rat; details: 30 min ischemia and 24 h reperfusion; 3 mg/kg
Description: as §1, §2
TUNEL Assay for Apoptosis: Renal tissue sections were deparaffinized and rehydrated by xylenes, graded alcohol series and deionized H2O, and then incubated in 20 μg/ml proteinase K for 20 min at RT. In situ cell death detection POD kit (Roche, IN, USA) was used according to the manufacturer's instructions. […]

[4] = test system: ATP content in renal tissue; experiment: I/R model: ATP content assay of kidney tissue; type: in vivo, rat
Description: as §1, §2
ATP Content Assay: The kidney tissue was immediately put into 10 ml 5% trichloroacetic acid with 10 mM DTT, 2 mM EDTA and cut into small pieces. The tissue was homogenized on ice, incubated for another 10 min, centrifuged for 10 min at 2000×g, and neutralized with 10N KOH to pH 7.6. After centrifugation for 10 min at 2000×g, aliquots of the resulting supernatant were stored at −80° C. ATP was measured by bioluminescence (ATP bioluminescent kit, Sigma, MO, USA).

Compound	incidence of CIN (CIN in patients)	renal mitochondrial oxygen consumption (state 3 respiration) (renal mitochondria)	histopathological score [1]	tubular cell injury (H&E, PAS) [1]	BUN [2]	serum creatinine [2]	TUNEL-positive cells in the medulla (tubular cell apoptosis) [3]	ATP content in renal tissue ([4]; 1 h reperfusion following 45 min ischemia, vs vehicle)	ATP content in renal tissue ([4]; end of 15 min ischemia)
C[C@H](O)C(=O)Nc1c(I)c(C(=O)NC(CO)CO)c(I)c(C(=O)NC(CO)CO)c1I [Iopamidol (Isovue 370), Iopamidol]	8.2%								
F[dR]FK-NH2 [SS-20]		significantly improved oxygen consumption	significantly improved histopathological score	protected brush border and prevented necrosis in the proximal tubules	130.7 ± 5.5# mg/dl	1.06 ± 0.11# mg/dl	significantly prevented TUNEL-positive cells	significantly higher	not altered
